Test results taken from the NIST ThermoML archive (doi:10.1016/j.jct.2018.07.013).

Experiments:
[1] = xn = mol fraction of the nth substance listed; settings: 298.15 K, 100 kPa, Liquid; for speed of sound: Frequency=3 MHz, Single path-length method; for mass density: Vibrating tube method
[2] = excess molar enthalpy (molar enthalpy of mixing); xn = mol fraction of the nth substance listed; settings: 298.15 K, 100 kPa, Liquid, Power-compensation calorimetry
[3] = 298.15 K, 100 kPa, Liquid; for speed of sound: Frequency=3 MHz, Single path-length method; for mass density: Vibrating tube method

COC(=O)C(C)O (centres undefined) [methyl 2-hydroxypropanoate] + CCCO
Settings | excess molar enthalpy, [2] [kcal/mol] | mass density, [1] [kg/m3] | speed of sound, [1] [m/s]
x1 = 0.045 | – | 815.93 | 1211.5
x1 = 0.05 | 0.0457 | – | –
x1 = 0.1025 | – | 836.2 | 1218.9
x1 = 0.104 | 0.0832 | – | –
x1 = 0.2047 | – | 870.81 | 1232.5
x1 = 0.207 | 0.134 | – | –
x1 = 0.3 | – | 901.52 | 1245.4
x1 = 0.309 | 0.162 | – | –
x1 = 0.4004 | – | 932.31 | 1259.8
x1 = 0.411 | 0.172 | – | –
x1 = 0.501 | 0.17 | – | –
x1 = 0.5012 | – | 961.71 | 1274.1
x1 = 0.5911 | – | 986.71 | 1286.9
x1 = 0.607 | 0.157 | – | –
x1 = 0.6935 | – | 1013.88 | 1300.8
x1 = 0.707 | 0.133 | – | –
x1 = 0.7978 | – | 1040.2 | 1315.1
x1 = 0.802 | 0.101 | – | –
x1 = 0.9 | – | 1064.67 | 1327.6
x1 = 0.902 | 0.0531 | – | –
x1 = 0.945 | – | 1075.04 | 1333.1
x1 = 0.95 | 0.0258 | – | –
x1 = 1 | – | 1087.35 | 1339.3

CCCO [propan-1-ol] + COC(=O)C(C)O
[1], x2 = 0
Settings | mass density [kg/m3] | speed of sound [m/s]
– | 799.66 | 1206

CCOC(=O)C(C)O (stereo not drawn) [DL-ethyl lactate] + CO
Settings | excess molar enthalpy, [2] [kcal/mol] | mass density, [1] [kg/m3] | speed of sound, [1] [m/s]
x1 = 0.0432 | – | 816.63 | 1125.5
x1 = 0.051 | -0.0088 | – | –
x1 = 0.0935 | – | 846.09 | 1149.1
x1 = 0.104 | -0.0166 | – | –
x1 = 0.1911 | – | 890.78 | 1187
x1 = 0.209 | -0.0299 | – | –
x1 = 0.2979 | – | 926.51 | 1215.4
x1 = 0.327 | -0.0361 | – | –
x1 = 0.3976 | – | 951.94 | 1234.5
x1 = 0.437 | -0.0378 | – | –
x1 = 0.5018 | – | 972.85 | 1250.5
x1 = 0.569 | -0.0356 | – | –
x1 = 0.5789 | – | 985.46 | 1259
x1 = 0.621 | -0.0313 | – | –
x1 = 0.695 | – | 1000.96 | 1270.3
x1 = 0.763 | -0.0199 | – | –
x1 = 0.8045 | – | 1012.66 | 1275.9
x1 = 0.83 | -0.0134 | – | –
x1 = 0.9018 | – | 1021.2 | 1278.2
x1 = 0.905 | -0.00672 | – | –
x1 = 0.958 | -0.00263 | – | –
x1 = 0.9622 | – | 1025.79 | 1279
x1 = 1 | – | 1028.45 | 1279.3

CCCCO [butan-1-ol]
[3]
Settings | mass density [kg/m3] | speed of sound [m/s]
– | 805.95 | 1240.4

CCO [ethanol]
[3]
Settings | mass density [kg/m3] | speed of sound [m/s]
– | 785.16 | 1143.2

CCCO [propan-1-ol] + CCOC(=O)C(C)O
[1], x2 = 0
Settings | mass density [kg/m3] | speed of sound [m/s]
– | 799.66 | 1206

COC(=O)C(C)O (centres undefined) [methyl 2-hydroxypropanoate] + CCCCO
Settings | excess molar enthalpy, [2] [kcal/mol] | mass density, [1] [kg/m3] | speed of sound, [1] [m/s]
x1 = 0.054 | 0.0531 | – | –
x1 = 0.0589 | – | 822.83 | 1242.8
x1 = 0.1088 | – | 837.09 | 1245.1
x1 = 0.132 | 0.109 | – | –
x1 = 0.174 | 0.138 | – | –
x1 = 0.1905 | – | 860.37 | 1249.8
x1 = 0.287 | 0.186 | – | –
x1 = 0.2973 | – | 890.71 | 1257.2
x1 = 0.384 | 0.204 | – | –
x1 = 0.3887 | – | 916.62 | 1265
x1 = 0.487 | 0.207 | – | –
x1 = 0.4999 | – | 948.04 | 1275.8
x1 = 0.552 | 0.2 | – | –
x1 = 0.5977 | – | 975.58 | 1286.4
x1 = 0.6976 | – | 1003.57 | 1298.3
x1 = 0.705 | 0.16 | – | –
x1 = 0.75 | 0.136 | – | –
x1 = 0.7926 | – | 1030.02 | 1310.6
x1 = 0.864 | 0.0767 | – | –
x1 = 0.9107 | – | 1062.72 | 1326.6
x1 = 0.934 | 0.039 | – | –
x1 = 0.9577 | – | 1075.69 | 1333.2
x1 = 1 | – | 1087.35 | 1339.3

COC(=O)C(C)O (centres undefined) [methyl 2-hydroxypropanoate] + CCO
Settings | excess molar enthalpy, [2] [kcal/mol] | mass density, [1] [kg/m3] | speed of sound, [1] [m/s]
x1 = 0.0492 | – | 809.35 | 1158
x1 = 0.056 | 0.0277 | – | –
x1 = 0.0968 | – | 831.45 | 1172.3
x1 = 0.104 | 0.0497 | – | –
x1 = 0.185 | 0.0801 | – | –
x1 = 0.2099 | – | 879.28 | 1203.7
x1 = 0.225 | 0.0932 | – | –
x1 = 0.281 | 0.105 | – | –
x1 = 0.3161 | – | 918.72 | 1229.4
x1 = 0.3921 | – | 944.17 | 1245.2
x1 = 0.464 | 0.11 | – | –
x1 = 0.4987 | – | 976.29 | 1266.1
x1 = 0.543 | 0.102 | – | –
x1 = 0.5872 | – | 1000.2 | 1283.3
x1 = 0.666 | 0.0825 | – | –
x1 = 0.6963 | – | 1026.72 | 1300.8
x1 = 0.794 | 0.0569 | – | –
x1 = 0.8007 | – | 1049.53 | 1316.4
x1 = 0.8814 | – | 1065.65 | 1326.5
x1 = 0.903 | 0.0282 | – | –
x1 = 0.952 | 0.0151 | – | –
x1 = 0.9535 | – | 1079.11 | 1334.4
x1 = 1 | – | 1087.35 | 1339.3

CCCO [propan-1-ol]
[3]
Settings | mass density [kg/m3] | speed of sound [m/s]
– | 799.66 | 1206

CO [methanol] + COC(=O)C(C)O
[1], x2 = 0
Settings | mass density [kg/m3] | speed of sound [m/s]
– | 786.53 | 1104

CCCCO [butan-1-ol] + COC(=O)C(C)O
[1], x2 = 0
Settings | mass density [kg/m3] | speed of sound [m/s]
– | 805.95 | 1240.4
